# Test results taken from the RepoRT retention time repository.
# Test: HILIC, Waters ACQUITY UPLC BEH Amide, 100 × 2.1 mm, 1.7 µm; A: water + 0.125% formic acid + 10 mM ammonium formate; B: 5% water + 95% acetonitrile + 0.125% formic acid + 10 mM ammonium formate; gradient (min/%B) 0/100 2/100 7.7/70 9.5/40 10.25/30 12.75/100 17/100
# Conditions: stereoisomer not certain
row,Structure (SMILES),LC retention time [min]
1,Nc1nc2nc[nH]c2c(=O)[nH]1 [Guanine],6.4
2,CC(=O)OCC1OC(Oc2c(-c3ccc(O)c(O)c3)oc3cc(O)cc(O)c3c2=O)C(O)C(O)C1O (stereo not drawn) [Quercetin-3-O-beta-glucopyranosyl-6'-acetate],4.61
3,O=C(O)c1cc(=O)c2ccccc2[nH]1 [Kynurenic acid],6.15
4,O=c1ccn(C2OC(CO)CC2O)c(=O)[nH]1 (stereo not drawn) [3-Deoxyuridine],2.87
5,c1ccc2c(-c3nccs3)c[nH]c2c1 [Camalexin],1.05
6,CN1CCC(c2ccc(F)cc2)C(COc2ccc3c(c2)OCO3)C1 (stereo not drawn) [N-Methylparoxetine],2.2
7,CNc1ccccc1 [N-Methylaniline],1.06
8,CC1CCCC(O)CCCCCc2cc(O)cc(O)c2C(=O)O1 (stereo not drawn) [Zeranol],1.11
9,CC(O)C(C)C(=O)O (stereo not drawn) [Methyl-3-hydroxybutyric acid],6.22
10,COc1cc2nc(N3CCN(C(=O)C4CCCO4)CC3)nc(N)c2cc1OC (stereo not drawn) [Terazosin],4.66
11,CCCN1CC(CSC)CC2c3cccc4[nH]cc(c34)CC21 (stereo not drawn) [Pergolide],2.41
12,CC=C1N(C)C(C)CC1(c1ccccc1)c1ccccc1 (stereo not drawn) [EDDP],1.9
13,NC(Cc1c[nH]c2ccc(O)cc12)C(=O)O (stereo not drawn) [5-Hydroxytryptophan],7.48
14,NCCCCC(=O)O [5-Aminovaleric acid],7.24
15,NC(CCC(=O)NC(CSSCC(NC(=O)CCC(N)C(=O)O)C(=O)NCC(=O)O)C(=O)NCC(=O)O)C(=O)O (stereo not drawn) [Glutathione (oxidized)],10.2
16,Nc1ccc(O)cc1 [4-Aminophenol],1.34
17,CC(C)=CCNc1ncnc2c1ncn2C1OC(CO)C(O)C1O (stereo not drawn) [N6-Isopentenyladenosine],1.48
18,CC(=O)OCC=C(C)CCC=C(C)C [Nerylacetate],0.99
19,CC(=O)CCCCn1c(=O)c2c(ncn2C)n(C)c1=O [Pentoxifylline],1.09

row,Structure (SMILES),LC retention time [min]
1,CN(C)C(N)=NCCCC(N)C(=O)O (stereo not drawn) [ADMA],8.55
2,CCCCCCCCCCCCCCCCCC(=O)OC(CC(=O)O)C[N+](C)(C)C [Stearoyl-L-carnitine],2.96
3,Cc1[nH]c(=O)c(C#N)cc1-c1ccncc1 [Milrinone],1.6
4,NC(=O)CS(=O)C(c1ccccc1)c1ccccc1 (stereo not drawn) [Modafinil],1.27
5,Cc1ncc(CO)c(CN)c1O [Pyridoxamine],8.1
6,CNCCCC12CCC(c3ccccc31)c1ccccc12 [Maprotiline],2.66
7,Cc1cc2nc3c(=O)[nH]c(=O)nc-3n(CC(O)C(O)C(O)CO)c2cc1C (stereo not drawn) [Riboflavin],6
8,CC(N)C(=O)NC(C)C(=O)O (stereo not drawn) [Ala-Ala],8.41
9,"CN(C)C(CCCN=C(N)N)C(=O)O (stereo not drawn) [N,N-Dimethylarginine]",9.1
10,CNCCC(Oc1ccccc1C)c1ccccc1 (stereo not drawn) [Atomoxetine],2.42
11,CC(C)CN [Isobutylamine],5.04
12,CCCCCCCCCCCC(=O)OC(CC(=O)[O-])C[N+](C)(C)C [Lauroyl-L-carnitine],3.63
13,Nc1ccn(C2CC(O)C(CO)O2)c(=O)n1 (stereo not drawn) [2'-Deoxycytidine],5.87
14,Nc1nc2c(ncn2C2CC(O)C(CO)O2)c(=O)[nH]1 (stereo not drawn) [2'-Deoxyguanosine],6.4
15,NC(=NCc1ccc(Cl)cc1)SCCCc1cnc[nH]1 [Clobenpropit],6.13
16,CCCCC(=O)N(Cc1ccc(-c2ccccc2-c2nn[nH]n2)cc1)C(C(=O)O)C(C)C (stereo not drawn) [Valsartan],1.69
17,NC(N)=NCCCCC(N)C(=O)O (stereo not drawn) [Homoarginine],9.34
18,CC(N)C(O)c1ccccc1 (stereo not drawn) [Phenylpropanolamine],5.29
19,Nc1ccc2cn[nH]c2c1 [6-Aminoindazole],1.26
